Data: patent US10556929B2, “Cytotoxic T lymphocyte inducing immunogens for prevention treatment and diagnosis of dengue virus infection” (Emergex Vaccines Holdings Limited, priority 2011, dated 2020)

What was measured:
Assay type in all cases: cell-based, human
[1] = system: T2 cells loaded with the corresponding synthetic peptide; assay: IFN-γ ELISpot, CTL vs peptide-pulsed T2 cells; settings: CTL from HLA-A2+ healthy donor PBMC generated with synthetic peptide, overnight ELISpot, FIG. 3A-D
Experimental: (§1) Heparinized blood from healthy HLA-A2+ donors was purchased from Research Blood Components, LLC (Brighton, Mass.). Peripheral blood mononuclear cells (PBMC) were purified using differential centrifugation following standard methods. PBMC were used to generate peptide specific CTL as described previously (James S. Testa, et al. J Infect Dis 205(4): 647-655. (2012)).
(§2) Antigen stimulated interferon-γ (IFN-γ) release as a measure of CTL activation was assayed using an ELISPOT assay kit (BD-Pharmingen, San Jose, Calif.) according to the manufacturer's instructions. Results are presented as the number of interferon-γ producing cells per 1E6 PBMCs. Each assay was performed with PBMC from at least three different healthy HLA-A2+ donors. Error bars represent SEM of experimental replicates.
In order to characterize the functionality of the identified DV epitopes, we generated cytotoxic T cells from HLA-A2+ healthy donors using synthetic peptides corresponding to the identified epitopes. The cultures were tested in overnight ELISpot assays to measure IFNγ release from activated CTLs. […] Next, to confirm CTL activation against DV-infected targets, JY and HepG2 cells were infected with both DV2 and DV3 virus and used as targets in CTL ELISpot assays. […] In addition, K562 cells, a known NK cell target, were used as targets to measure non-specific IFNγ secretion.

[2] = system: JY cells infected with DV1-4 Thai isolates; assay: IFN-γ ELISpot, CTL vs JY cells infected with DV1-4 Thai isolates; settings: JY infected with DV1-4 Thai isolates, FIG. 4G-J
Experimental: (§3) Dengue virus serotype 2 (DV2) (strain-16681), as well as DV type 3 (DV3) (strain-16562), were propagated in Vero cells and collected at 4 days post infection (dpi). Titer was determined using a plaque assay in Vero cells. Thai isolates of all four DV serotypes were propagated. All infections were carried out at five MOI for lhr, after which, virus was removed and cells were incubated for additional 48-72 hrs.
as §1, §2
(§4) We tested CTLs generated against the 4 epitopes using targets infected with all four DV serotypes. We infected HepG2 cells (FIG. 4A) or JY cells (FIG. 4B) with DV1-4 Thai isolates and verified protein expression. […] In addition to HepG2 cells, we also tested professional APC JY cells, as targets.

[3] = system: HepG2 cells infected with DV1-4 Thai isolates; assay: IFN-γ ELISpot, CTL vs HepG2 cells infected with DV1-4 Thai isolates; settings: HepG2 infected with DV1-4 Thai isolates, FIG. 4C-F
Experimental: as §3, §1, §2, §4

[4] = system: JY and HepG2 cells infected with DV2 and DV3 virus; assay: IFN-γ ELISpot, CTL vs DV2/DV3-infected JY and HepG2 cells; settings: FIG. 3E-F
Experimental: as §3, §1, §2
In order to characterize the functionality of the identified DV epitopes, we generated cytotoxic T cells from HLA-A2+ healthy donors using synthetic peptides corresponding to the identified epitopes. […]

Sequence | recognition of peptide-loaded targets by peptide-specific CTL (IFNγ release) [1] | DV serotypes of infected targets recognized by peptide-specific CTL [2] | activation of peptide-specific CTL by infected JY targets [2] | activation of epitope-specific CTL against infected HepG2 targets [3] | CTL activation (IFNγ secretion) against DV-infected targets [4]
KLAEAIFKL (listed as Homo sapiens) [P1-KLA] | recognize T2 cells loaded with the corresponding synthetic peptide | recognized only DV2-infected targets | most infected targets activate peptide-specific CTL | activated against all four serotypes, although not to the same degree | 
NIQTAINQV (listed as Homo sapiens) [P4-NIQ] | recognize T2 cells loaded with the corresponding synthetic peptide |  | most infected targets activate peptide-specific CTL | activated against all four serotypes, although not to the same degree | 
TITEEIAVQ (listed as Homo sapiens) [P3-TIT] | recognize T2 cells loaded with the corresponding synthetic peptide |  | most infected targets activate peptide-specific CTL | activated against all four serotypes, although not to the same degree | all DV-infected cells activated CTL to secrete IFNγ
VTLLCLIPTV (listed as Homo sapiens) [P2-VTL] | recognize T2 cells loaded with the corresponding synthetic peptide | recognized only DV2-infected targets | most infected targets activate peptide-specific CTL | activated against all four serotypes, although not to the same degree | all DV-infected cells activated CTL to secrete IFNγ
